In patent US10813926B2, “Morphinan compounds” (Concert Pharmaceuticals, Inc., priority 2008, dated 2020):
Where a name gives a salt, the structure may show the parent alone.

Key:
Human CYP2D6 SUPERSOMES = target: T1, Human CYP2D6 SUPERSOMES (Homo sapiens, UniProt P10635); assay: Metabolic stability in CYP2D6 SUPERSOMES; format: in vitro ADME; settings: 50 pmol/mL CYP2D6 SUPERSOMES, 1 μM test compound, 2 mM NADPH, 37° C., 0-30 minutes, triplicate
T1 construct: purchased GenTest (Woburn, Mass., USA)
Protocol: (§1) Human CYP2D6 SUPERSOMES™ were purchased from GenTest (Woburn, Mass., USA). 7.5 mM stock solutions of test compounds (Compounds 100, 102, 104, 106, dextromethorphan, a deuterated analog of dextromethorphan wherein each methyl group was replaced with CD3 (“d6-dextromethorphan”, chemical name (+)-3-d3-methoxy-17-d3-methyl-(9α,13α,14α)-morphinan, also referred to as Compound 101 in U.S. Ser. No. 12/112,936, and as “Test Compound” in FIG. 1 and Table 2 below), the ethyl ether analog of dextromethorphan (“dextroethorphan”) or the isopropyl ether analog of dextromethorphan (“dextroisoproporphan”)) were prepared in DMSO. The 7.5 mM stock solutions were diluted to 50 μM in acetonitrile (ACN). The 1000 pmol/mL CYP2D6 supersomes were diluted to 62.5 pmol/mL in 0.1 M potassium phosphate buffer, pH 7.4, containing 3 mM MgCl2. The diluted SUPERSOMES™ were added to wells of a 96-well deep-well polypropylene plate in triplicate. 10 μL of the 50 μM test compound was added to the supersomes and the mixture was pre-warmed for 10 minutes. Reactions were initiated by addition of pre-warmed NADPH solution. The final reaction volume was 0.5 mL and contained 50 pmol/mL CYP2D6 SUPERSOMES™, 1 μM test compound, and 2 mM NADPH in 0.1 M potassium phosphate buffer, pH 7.4, and 3 mM MgCl2. The reaction mixtures were incubated at 37° C. and 50 μL aliquots were removed at 0, 5, 10, 20, and 30 minutes and added to shallow-well 96-well plates which contained 50 μL of ice-cold ACN with internal standard to stop the reactions. The plates were stored at 4° C. for 20 minutes after which 100 μL of water was added to the wells of the plate before centrifugation to pellet precipitated proteins. Supernatants were transferred to another 96-well plate and analyzed for amounts of parent remaining by LC-MS/MS using an Applied Bio-systems API 4000 mass spectrometer.
(§2) The in vitro half-life (t1/2) for each of the test compounds was calculated from the slopes of the linear regression of % parent remaining (ln) vs incubation time relationship: in vitro t1/2=0.693/k, where k=−[slope of linear regression of % parent remaining(ln) vs incubation time]. Data analysis was performed using Microsoft Excel Software.

[1] = Metabolic stability using human liver microsomes; format: in vitro ADME; settings: for t1/2 ± SD, calculated half-life in human liver microsomes / half-life at 1 μM: 1.0 mg/mL human liver microsomes, 1 μM test compound, 2 mM NADPH, 37° C., triplicate; for half-life at 1 μM: pH 7.4, read-out: t1/2 ± SD, calculated half-life in human liver microsomes
Protocol: Human liver microsomes (20 mg/mL) were obtained from Xenotech, LLC (Lenexa, Kans.). β-nicotinamide adenine dinucleotide phosphate, reduced form (NADPH), magnesium chloride (MgCl2), and dimethyl sulfoxide (DMSO) were purchased from Sigma-Aldrich.
7.5 mM stock solutions of test compounds were prepared in DMSO. The 7.5 mM stock solutions were diluted to 50 μM in acetonitrile (ACN). The 20 mg/mL human liver microsomes were diluted to 1.25 mg/mL (1 mg/mL final) in 0.1 M potassium phosphate buffer, pH 7.4, containing 3 mM MgCl2. The diluted microsomes (375 μL) were added to wells of a 96-well polypropylene plate in triplicate. 10 μL of the 50 μM test compound was added to the microsomes and the mixture was pre-warmed for 10 minutes. Reactions were initiated by addition of 125 μL of pre-warmed NADPH solution. The final reaction volume was 0.5 mL and contained 1.0 mg/mL human liver microsomes, 1 μM test compound, and 2 mM NADPH in 0.1 M potassium phosphate buffer, pH 7.4, and 3 mM MgCl2. The reaction mixtures were incubated at 37° C., and 50 μL aliquots were removed at 0, 5, 10, 20, and 30 minutes and added to shallow 96-well plates which contained 50 μL of ice-cold ACN with internal standard to stop the reactions. The plates were stored at 4° C. for 20 minutes after which 100 μL of water was added to the wells of the plate before centrifugation to pellet precipitated proteins. Supernatants were transferred to another 96-well plate and analyzed for amounts of parent remaining by LC-MS/MS using an Applied Bio-systems API 4000 mass spectrometer.
7-ethoxy coumarin was used as a positive control.
The in vitro t1/2s for test compounds were calculated from the slopes of the linear regression of % parent remaining (ln) vs incubation time relationship:
in vitro t1/2=0.693/k, where k=−[slope of linear regression of % parent remaining(ln) vs incubation time]
Data Analysis was Performed Using Microsoft Excel Software.

CYP2D6 = target: T2, CYP2D6 (Homo sapiens, UniProt P10635); assay: Metabolic stability in CYP2D6 SUPERSOMES; format: in vitro ADME; settings: human, recombinant human CYP2D6 SUPERSOMES, pH 7.4; 50 pmol/mL CYP2D6 SUPERSOMES, 1 μM test compound, 2 mM NADPH, 37° C., 0-30 minutes, triplicate; read-out: t1/2 ± SD, calculated half-life in SUPERSOMES
T2 construct: purchased GenTest (Woburn, Mass., USA)
Protocol: as §1, §2

[2] = healthy human males; cited from earlier work
[3] = Table 3, vs dextroethorphan or dextroisoproporphan

T1 sequence (P10635 whole entry): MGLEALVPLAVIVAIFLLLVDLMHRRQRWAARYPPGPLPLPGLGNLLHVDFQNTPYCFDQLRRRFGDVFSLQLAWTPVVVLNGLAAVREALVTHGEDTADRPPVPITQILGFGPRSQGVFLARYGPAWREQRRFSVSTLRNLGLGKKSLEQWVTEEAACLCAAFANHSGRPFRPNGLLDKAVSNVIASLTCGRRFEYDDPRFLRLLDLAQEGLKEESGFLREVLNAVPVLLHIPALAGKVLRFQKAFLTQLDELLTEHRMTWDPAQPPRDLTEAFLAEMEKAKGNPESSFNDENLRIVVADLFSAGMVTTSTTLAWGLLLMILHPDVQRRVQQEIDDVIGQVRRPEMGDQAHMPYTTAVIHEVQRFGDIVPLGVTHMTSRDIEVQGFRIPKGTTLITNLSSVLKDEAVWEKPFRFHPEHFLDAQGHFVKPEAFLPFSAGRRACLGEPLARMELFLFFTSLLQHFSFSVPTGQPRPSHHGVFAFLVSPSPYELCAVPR
T2 sequence (P10635 whole entry): as above

Question: With COc1ccc2c(c1)[C@]13CCCC[C@@H]1[C@H](C2)N(C)CC3 [Dextromethorphan, (+)-3-methoxy-17-methyl-(9α,13α,14α)-morphinan, reference compound] as the molecule, how does the “t1/2 ± SD, calculated half-life in SUPERSOMES” value (Human CYP2D6 SUPERSOMES) read?
Answer: 1.7 ± 0.3 min

Question: What does the source list for [2H]C([2H])([2H])C([2H])([2H])Oc1ccc2c(c1)[C@]13CCCC[C@@H]1[C@H](C2)N(C)CC3 [Compound 104, (+)-3-(Ethoxy-d5)-17-methyl-(9α,13α,14α)-morphinan hydrochloride]?
Answer: t1/2 ± SD, calculated half-life in human liver microsomes ([1]; Table 3): 59.1 ± 2.2 min; Change over non-deuterated compound (half-life) [1, 3]: 109%; t1/2 ± SD, calculated half-life in SUPERSOMES (Human CYP2D6 SUPERSOMES): 49.1 ± 4.1 min

Question: With [2H]C([2H])([2H])c1ccc2c(c1)[C@]13CCCC[C@@H]1[C@H](C2)N(C)CC3 [Compound 108, (+)-3-(Methyl-d3)-17-methyl-(9α,13α,14α)-morphinan] as the molecule, how does the “Change over non-deuterated compound (half-life)” value ([1]; Table 4, vs dimemorfan) read?
Answer: 21%

Question: What does the source list for [2H]C([2H])([2H])N1CC[C@@]23CCCC[C@@H]2[C@@H]1Cc1ccc(OC([2H])([2H])C([2H])([2H])[2H])cc13 [Compound 100, (+)-3-(Ethoxy-d5)-17-(methyl-d3)-(9α,13α,14α)-morphinan hydrochloride]?
Answer: t1/2 ± SD, calculated half-life in human liver microsomes ([1]; Table 3): 59.2 ± 1.7 min; Change over non-deuterated compound (half-life) [1, 3]: 109%; t1/2 ± SD, calculated half-life in SUPERSOMES (Human CYP2D6 SUPERSOMES): 51.3 ± 3.7 min

Question: For [2H]C([2H])([2H])N1CC[C@@]23CCCC[C@@H]2[C@@H]1Cc1ccc(OC([2H])(C([2H])([2H])[2H])C([2H])([2H])[2H])cc13 [Compound 102, (+)-3-(Isopropoxy-d7)-17-(methyl-d3)-(9α,13α,14α)-morphinan], which “Change over non-deuterated compound (half-life)” value [1, 3] is on record?
Answer: 69%

Question: What about the half-life at 1 μM ([1]; Table 3) of the same molecule?
Answer: 61 ± 0.4 min

Question: And the half-life at 1 μM (CYP2D6)?
Answer: 39 ± 1.9 min

Question: What does the source list for CC(C)Oc1ccc2c(c1)[C@@]13CCCC[C@H]1[C@@H](C2)N(C)CC3 [Dextroisoproporphan, (+)-3-(2-propoxy)-17-methyl-morphinan, reference compound]?
Answer: half-life at 1 μM ([1]; Table 3): 36.1 ± 1.6 min; half-life at 1 μM (CYP2D6): 21.7 ± 1.6 min

Question: Which “Change over non-deuterated compound (half-life)” value ([1]; Table 4, vs dimemorfan) does the source give for [2H]C([2H])([2H])c1ccc2c(c1)[C@]13CCCC[C@@H]1[C@H](C2)N(C([2H])([2H])[2H])CC3 [Compound 110, (+)-3-(Methyl-d3)-17-(methyl-d3)-(9α,13α,14α)-morphinan] here?
Answer: 37%

Question: For [2H]C([2H])([2H])Oc1ccc2c(c1)[C@]13CCCC[C@@H]1[C@H](C2)N(C([2H])([2H])[2H])CC3 [Test Compound, (+)-3-d3-methoxy-17-d3-methyl-(9α,13α,14α)-morphinan, reference compound], which “t1/2 ± SD, calculated half-life in SUPERSOMES” value (Human CYP2D6 SUPERSOMES) is on record?
Answer: 5.6 ± 1.5 min

Question: With [2H]C([2H])([2H])C([2H])(Oc1ccc2c(c1)[C@]13CCCC[C@@H]1[C@H](C2)N(C)CC3)C([2H])([2H])[2H] [Compound 106, (+)-3-(Isopropoxy-d7)-17-methyl-(9α,13α,14α)-morphinan] as the molecule, how does the “Change over non-deuterated compound (half-life)” value [1, 3] read?
Answer: 91%

Question: And the half-life at 1 μM ([1]; Table 3)?
Answer: 68.8 ± 0.9 min

Question: What about the half-life at 1 μM (CYP2D6) of the same molecule?
Answer: 36 ± 2.8 min

Question: With Cc1ccc2c(c1)[C@]13CCCC[C@@H]1[C@H](C2)N(C)CC3 [Dimemorfan, (+)-(9α,13α,14α)-3,17-dimethylmorphinan] as the molecule, how does the “fraction of a dose metabolized” value [2] read?
Answer: Greater than 98%

Question: With CCOc1ccc2c(c1)[C@@]13CCCC[C@H]1[C@@H](C2)N(C)CC3 [Dextroethorphan, (+)-3-ethoxy-17-methylmorphinan, reference compound] as the molecule, how does the “t1/2 ± SD, calculated half-life in human liver microsomes” value ([1]; Table 3) read?
Answer: 28.3 ± 0.6 min

Question: And the “t1/2 ± SD, calculated half-life in SUPERSOMES” value (Human CYP2D6 SUPERSOMES)?
Answer: 10.3 ± 2.1 min
